Question: With `COc1cc2cc([N+](=O)[O-])ccc2c([N+](=O)[O-])c1O` as the molecule, how does the melting point read?
Answer: 239 to 242 °C

Question: Which melting point does the source give for `CCOCc1nc2c(N)nc3cc(Br)ccc3c2n1CC1CCN(C(=O)N2CCOCC2)CC1` here?
Answer: 198 to 199 °C

Question: For `CC(C)n1nc(C(Cl)C(=O)c2ccc(F)cc2)ccc1=O` (centres undefined), which melting point is on record?
Answer: 86.5 to 88 °C

Question: Which melting point does the source give for `OCC1NCc2ccsc2-n2cccc21` (centres undefined) here?
Answer: 166 °C

Question: Which melting point does the source give for `Cc1c(C(=O)c2ccc(F)cc2)c(C)n(C)c1C(=O)c1cccnc1` here?
Answer: 85 to 88 °C

Question: Which melting point does the source give for `COC(=O)C(C)NC(=O)NCCCCC1CCSS1` (centres undefined) here?
Answer: 72 to 82 °C

Question: For `CS(=O)c1ccc(-n2cnc3ccc(-c4nnc(SCc5cccc(F)c5)o4)cc32)cc1` (centres undefined), which melting point is on record?
Answer: 137 to 138 °C

Question: Which melting point does the source give for `CCOC(=O)CN1CCN(S(=O)(=O)c2ccc(N3CCC(NC[C@H](O)c4ccc(O)c(NS(C)(=O)=O)c4)CC3)cc2)CC1` here?
Answer: 91 to 92 °C

Question: Which melting point does the source give for `O=C(O)c1oc2cc(O)ccc2c(=O)c1C(=O)O` here?
Answer: 255 to 257 °C

Question: For `CCCCCCCCON=C(C(=O)OCC)c1csc(N)n1`, which melting point is on record?
Answer: 77 to 78 °C

Question: With `CCCCCCCCCCNC(=O)Nc1ccc(N(C)C)cc1C(=O)NCC1CCN(C(c2ccccc2)c2ccccc2)CC1` as the molecule, how does the melting point read?
Answer: 145 to 147 °C

Question: Which melting point does the source give for `CC1CC2(NC(=O)NC2=O)c2cc(F)ccc2O1` (centres undefined) here?
Answer: 233 to 235 °C

Question: Which melting point does the source give for `Cc1cn(Cc2ccccc2[N+](=O)[O-])c(=O)o1` here?
Answer: 82.9 to 83.9 °C

Question: For `CC12CCCCC1CCC1C2CCC2(C)C(C(O)c3ccccc3)CCC12` (centres undefined), which melting point is on record?
Answer: 129 to 130 °C

Question: Which melting point does the source give for `CC(C)c1ccc2c(c1)c(SC1CCCCC1)c(CC(C)(C)C(=O)O)n2Cc1ccc(Cl)cc1` here?
Answer: 166 to 168 °C

Question: With `COc1cccc(CS[C@H]2C[C@@H](C(N)=O)N(C)C2)c1` as the molecule, how does the melting point read?
Answer: 113 to 114 °C

Question: With `O=C(O)CCN1Cn2cc(C(=O)O)cc2-c2ccccc21` as the molecule, how does the melting point read?
Answer: 234 to 236 °C

Question: With `CCOCC1OC(n2c(Cl)nc3cc(Cl)c(Cl)cc32)C(O)C1O` (centres undefined) as the molecule, how does the melting point read?
Answer: 88 to 90 °C

Question: For `COc1ccc(-c2c(-c3ccncc3)sc3nc(=O)cc(N)n23)cc1`, which melting point is on record?
Answer: 267 to 271 °C

Question: With `C[C@@H](O)[C@H](CN)C(=O)O` as the molecule, how does the melting point read?
Answer: 120 to 123 °C

Question: Which melting point does the source give for `O=C1c2sccc2-n2cnc(Cl)c2[C@@H]2CCCN12` here?
Answer: 180 to 183 °C

Question: With `N#Cc1c(C(F)(F)F)cc(N(Cc2ccccn2)Cc2ccccn2)cc1C(F)(F)F` as the molecule, how does the melting point read?
Answer: 122 °C

Question: Which melting point does the source give for `Cc1cc(-n2ccnc2)c2cccc(OCc3c(Cl)ccc(S(=O)(=O)N4CCC[C@H]4C(=O)NCC4CCN(Cc5ccncc5)CC4)c3Cl)c2n1` here?
Answer: 113 °C

Question: For `CCOC(=O)C1=C(C)NC(c2csc(C)n2)=NC1c1ccc(O)cc1` (centres undefined), which melting point is on record?
Answer: 208 to 210 °C

Question: With `COc1ccccc1C(c1ccccc1)c1cccc(-c2ccccc2)c1O` (centres undefined) as the molecule, how does the melting point read?
Answer: 120 °C

Question: With `CCNC(=O)c1ccc(-c2ccc3nnn(Cc4cc5cccnc5cc4F)c3n2)cc1Cl` as the molecule, how does the melting point read?
Answer: 197 to 199 °C

Question: For `NC(=O)/C=C1\CCc2c(F)cc(F)cc21`, which melting point is on record?
Answer: 178 to 180 °C

Question: With `CCOC(=O)C1=C(c2ccc(OC)c(OC)c2)c2ccccc2C1=O` as the molecule, how does the melting point read?
Answer: 130 °C

Question: For `CC(C)(C)OC(=O)N1CC(CO)c2c1cc(OCc1ccccc1)c1ncccc21` (centres undefined), which melting point is on record?
Answer: 170 to 171 °C

Question: With `O=C1C=C(O)CC(c2ccc3c(c2)OCCO3)C1` (centres undefined) as the molecule, how does the melting point read?
Answer: 188 °C

Question: For `Cc1noc(NC(=O)N2CCN(c3nccc(-c4cccc(F)c4F)n3)CC2)c1C`, which melting point is on record?
Answer: 193 to 194 °C

Question: For `O=C(O)[C@@H](CC(=O)N1CCN(CC(F)(F)F)CC1)Cc1ccccc1`, which melting point is on record?
Answer: 96 to 98 °C

Question: Which melting point does the source give for `Nc1nc2ccccc2c2c1nc(COc1ccccc1)n2CCOc1ccccc1` here?
Answer: 168 to 170 °C

Question: With `CSC(=NCCSCc1ccsn1)NC#N` as the molecule, how does the melting point read?
Answer: 85 to 87 °C

Question: Which melting point does the source give for `CCc1c(C(=O)O)[nH]c2c1C(=O)CC(C)(C)C2` here?
Answer: > 198 °C

Question: Which melting point does the source give for `Cc1oncc1C(=O)N1CCC(C)CC1` here?
Answer: 44 to 45 °C

Question: Which melting point does the source give for `NC(=O)C1(c2ccccc2)OC(=O)c2ccccc21` (centres undefined) here?
Answer: 225 to 227 °C

Question: For `CCOC(=O)c1cnoc1-c1ccc(C)cc1`, which melting point is on record?
Answer: 42 to 44 °C

Question: With `CC(C)(Cc1cc2ccccc2[nH]1)[N+](=O)[O-]` as the molecule, how does the melting point read?
Answer: 102 to 103 °C

Question: With `CC(=O)Oc1ccc2ncnc(Nc3ccc(OCc4ccccn4)c(C)c3)c2c1` as the molecule, how does the melting point read?
Answer: 149 to 151 °C

Question: With `O=C(O)c1c(Cl)ccc([N+](=O)[O-])c1Cl` as the molecule, how does the melting point read?
Answer: 133 to 135 °C

Question: Which melting point does the source give for `Cn1c(=O)c(-c2ccc(Cl)cc2Cl)cc2c3cc(-c4ccno4)ccc3n(C)c21` here?
Answer: 241 to 242 °C

Question: With `O=S(=O)(Nc1ccncc1)c1ccc(Br)s1` as the molecule, how does the melting point read?
Answer: 310 °C

Question: For `CCCOc1c(Cl)cc(Cl)c2c(=O)c3ccccc3sc12`, which melting point is on record?
Answer: 104 to 105 °C

Question: With `CCSc1nc2c(cc1F)c(=O)c(C(=O)O)cn2CC` as the molecule, how does the melting point read?
Answer: 219 to 221 °C

Question: Which melting point does the source give for `Cc1coc2c1C(=O)CC(c1ccccc1F)C2` (centres undefined) here?
Answer: 71 to 72 °C

Question: With `Clc1cc(N2Cc3ccccc3C2)nc2ccccc12` as the molecule, how does the melting point read?
Answer: 172 to 173 °C

Question: For `Cc1c(CC(=O)O)c2cc(OCc3ccccn3)ccc2n1Cc1ccc(Cl)cc1`, which melting point is on record?
Answer: 231 to 233 °C

Question: For `OC1(Cn2cncn2)C(=Cc2ccc(Cl)cc2)CCCC1C1CCCCC1` (centres undefined), which melting point is on record?
Answer: 144 °C

Question: For `O=C(OCc1ccccc1)N1CCC(O)(Cn2nc(-c3c(-c4ccccc4)nn4ccccc34)ccc2=O)CC1`, which melting point is on record?
Answer: 176 to 177 °C

Question: With `C=C(C)COc1cc(Cl)ccc1[N+](=O)[O-]` as the molecule, how does the melting point read?
Answer: 47 to 49 °C

Question: Which melting point does the source give for `COc1ccc(-c2cc(C(=O)C(F)(F)F)[nH]c2-c2ccc(OC)cc2)cc1` here?
Answer: 185 to 186 °C

Question: Which melting point does the source give for `CCOC(=O)c1cc2c3ccccc3n(Cc3ccccc3)c2nc1N1CCOCC1` here?
Answer: 151 to 152 °C

Question: With `O=[N+]([O-])c1ccc2c(c1)C(N1CCCC1)C(O)CC2` (centres undefined) as the molecule, how does the melting point read?
Answer: 77 °C

Question: Which melting point does the source give for `CC(Nc1nc(-c2ccccc2)cs1)c1ccc(COc2ccc(CC(=O)O)cc2)cc1` (centres undefined) here?
Answer: 116 to 118 °C

Question: Which melting point does the source give for `COc1ccc(N2CCN(Cc3n[nH]c4ccccc34)CC2)cc1` here?
Answer: 167 to 168 °C

Question: Which melting point does the source give for `CC1CCNC(=C2C(=O)CC(C)(C)CC2=O)N1` (centres undefined) here?
Answer: 164 to 165 °C

Question: Which melting point does the source give for `Nc1nc(F)cc(OC(F)(F)F)n1` here?
Answer: 86 to 89 °C

Question: Which melting point does the source give for `CC(C)S(=O)(=O)Nc1cc(C(=O)c2ccccc2)ccc1N` here?
Answer: 150 to 152 °C

Question: Which melting point does the source give for `CC1CN(CC(N)=O)C(=O)N1` (centres undefined) here?
Answer: 124 °C

Question: Which melting point does the source give for `COc1ccc(COc2ccc(CC(=O)O)cc2Cl)cc1Cl` here?
Answer: 150 to 151 °C

Question: With `CNCC(O)c1ccc(Cl)cc1` (centres undefined) as the molecule, how does the melting point read?
Answer: 84 to 86 °C

Question: With `CCOC(=O)CN(c1cccc2cc(-c3nccs3)n(COC)c12)S(=O)(=O)c1cccs1` as the molecule, how does the melting point read?
Answer: 124 to 125 °C

Question: Which melting point does the source give for `CCCCCCCCc1c(C)[nH]c(C)c(C#N)c1=O` here?
Answer: 205 to 206 °C

Question: Which melting point does the source give for `CN(C)c1ccc2nc(-c3cccc4ccccc34)[nH]c(=O)c2c1` here?
Answer: 254 to 255 °C

Question: With `CN(C)CCc1c[nH]c2ccc(CC3COC(=O)N3)cc12` (centres undefined) as the molecule, how does the melting point read?
Answer: 138 to 140 °C

Question: With `COc1cc2c(cc1-c1c(C)nn(C)c1C)-c1c(-c3cccs3)c3c(n1CC2)C(=O)N(C(C)C)CCN(C(C)=O)C3` as the molecule, how does the melting point read?
Answer: 178 to 180 °C

Question: With `COc1ccc2c(c1OC)C(=O)O[C@@H]2[C@H]1c2c(c(N=[N+]=[N-])c3c(c2OC)OCO3)CCN1C` as the molecule, how does the melting point read?
Answer: 177 to 178 °C

Question: Which melting point does the source give for `CC(C)N(CCC(CCN(C)C)(C(N)=O)c1ccc(F)cc1)C(C)C` (centres undefined) here?
Answer: 78 to 80 °C

Question: With `Nc1ccc(Cl)c2c(Cl)ccnc12` as the molecule, how does the melting point read?
Answer: 135 °C

Question: Which melting point does the source give for `COCOc1cc(C(=O)O)n(Cc2ccc(C(F)(F)F)cc2Cl)n1` here?
Answer: 133 to 134 °C

Question: With `Oc1cc(O)c2cc(-c3ccc(F)cc3)oc2c1` as the molecule, how does the melting point read?
Answer: 189 to 190 °C

Question: For `CCOc1ccc(C(=O)C#N)cc1`, which melting point is on record?
Answer: 43 °C

Question: With `COC(=O)NCCCn1c(-c2ccc(OC)cc2)csc1=Nc1ccccc1` as the molecule, how does the melting point read?
Answer: 106 to 108 °C

Reference: a melting point compilation (Tetko et al.; mined from patent text by program, amines drawn as free bases though some values may be those of a salt)
